Experimental data as given in patent US10202361B2, “Pyridazinones as herbicides” (E I DU PONT DE NEMOURS AND COMPANY, priority 2014, dated 2019).

Columns and labels:
Format in all cases: in vivo
[1] = test system: bromegrass, downy (downy bromegrass, Bromus tectorum); experiment: Test C pre-/postemergence greenhouse herbicide test
Procedure, shortened: (§1)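 Seeds sown in loam soil–sand blend were treated preemergence; plants at 2 to 18 cm (1- to 4-leaf stage) in peat-based medium were treated postemergence. Test chemicals were formulated in a non-phytotoxic solvent mixture with surfactant. After 13 to 15 d in greenhouse, injury was rated visually versus controls, 0 (no effect) to 100 (complete control).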

[2] = test system: nightshade (eastern black nightshade, Solanum ptycanthum); experiment: as above; settings: Preemergence
Procedure, shortened: as §1

[3] = test system: barley (winter barley, Hordeum vulgare); experiment: Test C postemergence greenhouse herbicide test
[4] = test system: canarygrass (Phalaris minor); experiment: Test C postemergence greenhouse herbicide test
[5] = test system: deadnettle (henbit deadnettle, Lamium amplexicaule); experiment: Test C postemergence greenhouse herbicide test
[6] = test system: windgrass (Apera spica-venti); experiment: Test C postemergence greenhouse herbicide test

Cc1cc(=O)n(-c2ccc(F)cc2)nc1Oc1ccnc(C(F)(F)F)c1 [Compound 14, 2-(4-fluorophenyl)-5-methyl-6-[[2-(trifluoromethyl)-4-pyridinyl]oxy]-3 (2H)-pyridazinone]
Plant response rating ([1]; Postemergence, 31 g ai/ha): 5 | Plant response rating ([1]; Postemergence, 62 g ai/ha): 5 | Plant response rating ([1]; Postemergence, 125 g ai/ha): 5 | Plant response rating ([1]; Postemergence, 250 g ai/ha): 30 | Plant response rating ([1]; Preemergence, 31 g ai/ha): 5 | Plant response rating ([1]; Preemergence, 62 g ai/ha): 5 | Plant response rating ([1]; Preemergence, 125 g ai/ha): 5 | Plant response rating ([1]; Preemergence, 250 g ai/ha): 30 | Plant response rating ([2]; 31 g ai/ha): 98 | Plant response rating ([2]; 62 g ai/ha): 98 | Plant response rating ([2]; 125 g ai/ha): 98 | Plant response rating ([2]; 250 g ai/ha): 100 | Plant response rating ([3]; 31 g ai/ha): 5 | Plant response rating ([3]; 62 g ai/ha): 5 | Plant response rating ([3]; 125 g ai/ha): 10 | Plant response rating ([3]; 250 g ai/ha): 25 | Plant response rating ([4]; 31 g ai/ha): 5 | Plant response rating ([4]; 62 g ai/ha): 5 | Plant response rating ([4]; 125 g ai/ha): 10 | Plant response rating ([4]; 250 g ai/ha): 15 | Plant response rating ([5]; 31 g ai/ha): 85 | Plant response rating ([5]; 62 g ai/ha): 85 | Plant response rating ([5]; 125 g ai/ha): 85 | Plant response rating ([5]; 250 g ai/ha): 85 | Plant response rating ([6]; 31 g ai/ha): 20 | Plant response rating ([6]; 62 g ai/ha): 20 | Plant response rating ([6]; 125 g ai/ha): 25 | Plant response rating ([6]; 250 g ai/ha): 30
